# Values of other authors in US11471437B2, “Compositions and methods for treating cannabinoid hyperemesis syndrome with a cannabinoid receptor antagonist” (Opiant Pharmaceuticals, Inc., priority 2019, dated 2022).
# Experiments:
# [1] = oral formulation for obesity and smoking cessation; cited from earlier work
# [2] = cited from earlier work
# CB1 receptor [3] = molecular target: T1, CB1 receptor (Homo sapiens, UniProt P21554); conditions: cited from earlier work
# CB1 receptor [4] = molecular target: T1, CB1 receptor; design: host or cells: human volunteers (in vivo); conditions: oral administration, normal volunteers; cited from earlier work
# T1 sequence (P21554 whole entry): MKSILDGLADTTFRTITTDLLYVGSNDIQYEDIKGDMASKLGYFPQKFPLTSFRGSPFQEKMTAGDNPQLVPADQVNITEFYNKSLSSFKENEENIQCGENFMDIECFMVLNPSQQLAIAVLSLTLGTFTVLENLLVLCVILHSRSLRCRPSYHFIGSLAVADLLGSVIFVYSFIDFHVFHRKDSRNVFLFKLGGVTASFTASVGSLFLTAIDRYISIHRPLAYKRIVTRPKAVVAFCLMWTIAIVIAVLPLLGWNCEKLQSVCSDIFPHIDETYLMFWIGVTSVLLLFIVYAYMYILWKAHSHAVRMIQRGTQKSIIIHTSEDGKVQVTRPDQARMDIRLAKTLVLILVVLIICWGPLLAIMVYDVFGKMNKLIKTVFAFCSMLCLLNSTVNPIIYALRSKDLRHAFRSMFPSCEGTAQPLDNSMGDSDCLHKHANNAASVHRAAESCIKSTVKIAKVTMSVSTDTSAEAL
Structure (SMILES),Side effects [1],log P [2],Potency and selectivity for CB1 (CB1 receptor [3]),Prevention (block) of pharmacological effects of smoked or inhaled THC (CB1 receptor [4])
"Cc1c(C(=O)NN2CCCCC2)nn(-c2ccc(Cl)cc2Cl)c1-c1ccc(Cl)cc1 [Rimonabant, 5-(4-chlorophenyl)-1-(2,4-dichloro-phenyl)-4-methyl-N-(piperidin-1-yl)-1H-pyrazole-3-carboxamide]",concerning side effects including psychiatric effects such as depression and mood alterations,,,
"CS(=O)(=O)N(c1cc(F)cc(F)c1)C1CN(C(c2ccc(Cl)cc2)c2ccc(Cl)cc2)C1 (racemic) [drinabant, (±)-N-{1-[bis(4-chlorophenyl)methyl]-3-azetidinyl}-N-(3,5-difluorophenyl)methanesulfonamide]",,high,potent and selective for CB1,"can prevent (that is, block) some of the pharmacological effects of smoked or inhaled THC"
CCc1c(C(=O)NN2CCCCC2)nn(-c2ccc(Cl)cc2Cl)c1-c1ccc(Br)cc1 [surinabant],,,,"can prevent (that is, block) some of the pharmacological effects of smoked or inhaled THC"
